The values that follow come from patent US20260176320A1, “MODULATORS OF G-PROTEIN COUPLED RECEPTORS” (priority 2018, published 2026).

Read-outs that look alike come from different tables or passages of the source. Numbered stars: 1 amine (or outer) side, 2 acyl side, 3 side chain; on linkers, the order of the positions; unused ones are H or OH. Square brackets hold non-standard residues; d marks the D form. Side chains are listed from the residue outwards. Peptide text beside a SMILES is read from it. * marks the point of attachment. γGlu = O=C(O)[C@H](CCC(=O)[*:2])N[*:1]; Palmitoyl = CCCCCCCCCCCCCCCC(=O)*; X6 = O=C(CSCC(=O)*)NCCN1CCCCC1=O; Aib = CC(C)(N)C(=O)O

Common to all, as to format: cell-based
One assay has as its target T1, GIP-R (Homo sapiens, UniProt P48546).
T1 sequence (P48546 22-466): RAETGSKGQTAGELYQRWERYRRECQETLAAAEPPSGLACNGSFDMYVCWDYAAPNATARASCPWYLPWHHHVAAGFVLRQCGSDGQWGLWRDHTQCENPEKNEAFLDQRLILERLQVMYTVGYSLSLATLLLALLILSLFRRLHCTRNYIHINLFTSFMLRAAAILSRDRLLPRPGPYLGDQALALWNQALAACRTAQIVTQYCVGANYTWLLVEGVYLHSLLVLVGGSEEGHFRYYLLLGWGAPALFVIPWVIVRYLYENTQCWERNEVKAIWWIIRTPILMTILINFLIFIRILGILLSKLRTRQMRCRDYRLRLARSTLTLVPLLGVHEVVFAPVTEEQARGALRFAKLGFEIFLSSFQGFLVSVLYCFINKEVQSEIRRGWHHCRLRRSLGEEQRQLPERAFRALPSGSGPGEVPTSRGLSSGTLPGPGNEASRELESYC
Kind of assay: HitHunter cAMP assay (GIP-R). As to conditions: cAMP; for Emax: read-out: (Emax) GIP-R. The essentials:
(§1)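 Cells were resuspended in HBSS plus HEPES, IBMX (625 μM) and BSA, then dispensed with antibody at 10,000 per well. Agonists followed as 22-point twofold series, 30 min at room temperature. Antibody reagent and detection steps ran 1 h and overnight in the dark before luminescence.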
(In general: Cyclic AMP is a second messenger, typically raised through Gs and lowered through Gi signalling.)

The target in assay [1] is T2, GLP-1R (Homo sapiens, UniProt P43220). Kind of assay: PathHunter β-arrestin assay. The essentials: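 Agonist concentration–response (22 points, 2-fold steps, duplicates) was run on cells plated the previous day in BSA-supplemented (0.2%) medium. Stimulation lasted 90 min at 37 °C, followed by a 3 h dark incubation with detection reagent at room temperature and a luminescence read.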

For assay [2], the target named is T2, GLP-1R. In words: HitHunter cAMP assay (GLP-1R). The note with it: cAMP; for Emax: read-out: (Emax) GLP-1R. The essentials:
as §1

[3] abbreviates: PathHunter β-arrestin assay, read-out: β-arrestin activity EC50.
[4] abbreviates: Table 3A, read-out: EC50 GLP-1R/nM.

T2 sequence (P43220 24-463): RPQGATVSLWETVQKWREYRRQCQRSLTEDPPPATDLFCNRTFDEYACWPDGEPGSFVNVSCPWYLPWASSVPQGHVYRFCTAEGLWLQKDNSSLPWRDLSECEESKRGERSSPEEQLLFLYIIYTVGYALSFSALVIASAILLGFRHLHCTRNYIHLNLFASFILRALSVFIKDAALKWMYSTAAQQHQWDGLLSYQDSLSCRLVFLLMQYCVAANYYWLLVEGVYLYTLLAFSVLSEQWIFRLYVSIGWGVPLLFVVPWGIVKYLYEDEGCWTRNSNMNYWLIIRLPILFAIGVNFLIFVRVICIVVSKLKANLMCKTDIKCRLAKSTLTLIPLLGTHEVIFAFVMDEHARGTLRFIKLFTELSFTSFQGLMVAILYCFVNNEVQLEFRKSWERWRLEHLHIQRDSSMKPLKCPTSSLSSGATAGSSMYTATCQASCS

Consider `CCCCCCCCCCCCCCCC(=O)N[C@@H](CCC(=O)NCCCC[C@H](NC(=O)[C@H](CO)NC(=O)[C@@H]1CCCN1C(=O)[C@@H]1CCCN1C(=O)[C@@H]1CCCN1C(=O)[C@H](C)NC(=O)CNC(=O)[C@H](CO)NC(=O)[C@H](CO)NC(=O)[C@@H]1CCCN1C(=O)CNC(=O)CNC(=O)[C@H](C)NC(=O)[C@H](CC(C)C)NC(=O)[C@H](CC(C)C)NC(=O)[C@H](Cc1c[nH]c2ccccc12)NC(=O)[C@H](CC(N)=O)NC(=O)[C@@H](NC(=O)[C@H](Cc1ccccc1)NC(=O)[C@H](CCC(=O)O)NC(=O)C(C)(C)NC(=O)[C@H](C)NC(=O)[C@H](C)NC(=O)[C@H](CCC(N)=O)NC(=O)[C@H](CCCCN)NC(=O)[C@H](CC(=O)O)NC(=O)[C@H](CC(C)C)NC(=O)[C@H](Cc1ccc(O)cc1)NC(=O)[C@@H](NC(=O)[C@H](CO)NC(=O)[C@H](Cc1ccc(O)cc1)NC(=O)[C@H](CC(=O)O)NC(=O)[C@H](CO)NC(=O)[C@@H](NC(=O)[C@H](Cc1ccccc1)NC(=O)[C@@H](NC(=O)CNC(=O)[C@H](CCC(=O)O)NC(=O)CSCC(=O)NCCn1ccc(C)cc1=O)[C@@H](C)O)[C@@H](C)O)[C@@H](C)CC)C(C)C)C(N)=O)C(=O)O` [Compound 285], for which the EC50 on GIP-R (EC50 GIP-R/nM, Table 3A) is 0.1 to 1 nM; on GLP-1R [1], over 1000 nM; on GLP-1R [2] (EC50 GLP-1R/nM, Table 3A), under 0.1 nM. The Emax on GIP-R (Table 3A) came to 97%; at GLP-1R [2] (Table 3A), 99%.
In the case of `CCCCCCCCCCCCCCCC(=O)N[C@@H](CCC(=O)NCCCC[C@H](NC(=O)[C@H](CO)NC(=O)[C@@H]1CCCN1C(=O)[C@@H]1CCCN1C(=O)[C@@H]1CCCN1C(=O)[C@H](C)NC(=O)CNC(=O)[C@H](CO)NC(=O)[C@H](CO)NC(=O)[C@@H]1CCCN1C(=O)CNC(=O)CNC(=O)[C@H](C)NC(=O)[C@H](CC(C)C)NC(=O)[C@H](CC(C)C)NC(=O)[C@H](Cc1c[nH]c2ccccc12)NC(=O)[C@H](CC(N)=O)NC(=O)[C@@H](NC(=O)[C@H](Cc1ccccc1)NC(=O)[C@H](CCC(=O)O)NC(=O)C(C)(C)NC(=O)[C@H](C)NC(=O)[C@H](C)NC(=O)[C@H](CCC(N)=O)NC(=O)[C@H](CCCCN)NC(=O)[C@H](CC(=O)O)NC(=O)[C@H](CC(C)C)NC(=O)[C@H](Cc1ccc(O)cc1)NC(=O)[C@@H](NC(=O)[C@H](CO)NC(=O)[C@H](Cc1ccc(O)cc1)NC(=O)[C@H](CC(=O)O)NC(=O)[C@H](CO)NC(=O)[C@@H](NC(=O)[C@H](Cc1ccccc1)NC(=O)[C@@H](NC(=O)CNC(=O)[C@H](CCC(=O)O)NC(=O)CSCC(=O)NCCN1C(=O)c2ccccc2C1=O)[C@@H](C)O)[C@@H](C)O)[C@@H](C)CC)C(C)C)C(N)=O)C(=O)O` [Compound 173], the EC50 on GIP-R (EC50 GIP-R/nM, Table 3) is 0.1 to 1 nM; on GIP-R (EC50 GIP-R/nM, Table 3A), 0.1 to 1 nM; on GLP-1R [1], over 1000 nM; on GLP-1R [2] (EC50 GLP-1R/nM, Table 3), 1 to 10 nM; on GLP-1R [2] (EC50 GLP-1R/nM, Table 3A), 1 to 10 nM. Moreover, the Emax was 92 to 111% at GIP-R (Table 3), 92 to 111% at GIP-R (Table 3A), 90 to 105% on GLP-1R [2] (Table 3) and 90 to 105% at GLP-1R [2] (Table 3A).
For the molecule `CCCCCCCCCCCCCCCC(=O)N[C@@H](CCC(=O)NCCCC[C@H](NC(=O)[C@H](CO)NC(=O)[C@@H]1CCCN1C(=O)[C@@H]1CCCN1C(=O)[C@@H]1CCCN1C(=O)[C@H](C)NC(=O)CNC(=O)[C@H](CO)NC(=O)[C@H](CO)NC(=O)[C@@H]1CCCN1C(=O)CNC(=O)CNC(=O)[C@H](C)NC(=O)[C@H](CC(C)C)NC(=O)[C@H](CC(C)C)NC(=O)[C@H](Cc1c[nH]c2ccccc12)NC(=O)[C@H](CC(N)=O)NC(=O)[C@@H](NC(=O)[C@H](Cc1ccccc1)NC(=O)[C@H](CCC(=O)O)NC(=O)C(C)(C)NC(=O)[C@H](C)NC(=O)[C@H](C)NC(=O)[C@H](CCC(N)=O)NC(=O)[C@H](CCCCN)NC(=O)[C@H](CC(=O)O)NC(=O)[C@H](CC(C)C)NC(=O)[C@H](Cc1ccc(O)cc1)NC(=O)[C@@H](NC(=O)[C@H](CO)NC(=O)[C@H](Cc1ccc(O)cc1)NC(=O)[C@H](CC(=O)O)NC(=O)[C@H](CO)NC(=O)[C@@H](NC(=O)[C@H](Cc1ccccc1)NC(=O)[C@@H](NC(=O)CNC(=O)[C@H](CCC(=O)O)NC(=O)CSCC(=O)NCCN1C[C@H](OC)CC1=O)[C@@H](C)O)[C@@H](C)O)[C@@H](C)CC)C(C)C)C(N)=O)C(=O)O` [Compound 8], the EC50 on GIP-R (EC50 GIP-R/nM, Table 3) is 1 to 10 nM; on GIP-R (EC50 GIP-R/nM, Table 3A), 1 to 10 nM; on GLP-1R [1], over 1000 nM; at GLP-1R [2] (EC50 GLP-1R/nM, Table 3), under 0.1 nM; on GLP-1R [2] (EC50 GLP-1R/nM, Table 3A) it was under 0.1 nM. Further, the Emax on GIP-R (Table 3) came to 57%; on GIP-R (Table 3A), 57%; on GLP-1R [2] (Table 3), 90%; on GLP-1R [2] (Table 3A), 90%.
As for `CCCCCCCCCCCCCCCC(=O)N[C@@H](CCC(=O)NCCCC[C@H](NC(=O)[C@H](CO)NC(=O)[C@@H]1CCCN1C(=O)[C@@H]1CCCN1C(=O)[C@@H]1CCCN1C(=O)[C@H](C)NC(=O)CNC(=O)[C@H](CO)NC(=O)[C@H](CO)NC(=O)[C@@H]1CCCN1C(=O)CNC(=O)CNC(=O)[C@H](C)NC(=O)[C@H](CC(C)C)NC(=O)[C@H](CC(C)C)NC(=O)[C@H](Cc1c[nH]c2ccccc12)NC(=O)[C@H](CC(N)=O)NC(=O)[C@@H](NC(=O)[C@H](Cc1ccccc1)NC(=O)[C@H](CCC(=O)O)NC(=O)C(C)(C)NC(=O)[C@H](C)NC(=O)[C@H](C)NC(=O)[C@H](CCC(N)=O)NC(=O)[C@H](CCCCN)NC(=O)[C@H](CC(=O)O)NC(=O)[C@H](CC(C)C)NC(=O)[C@H](Cc1ccc(O)cc1)NC(=O)[C@@H](NC(=O)[C@H](CO)NC(=O)[C@H](Cc1ccc(O)cc1)NC(=O)[C@H](CC(=O)O)NC(=O)[C@H](CO)NC(=O)[C@@H](NC(=O)[C@H](Cc1ccccc1)NC(=O)[C@@H](NC(=O)CNC(=O)[C@H](CCC(=O)O)NC(=O)CCCC(=O)NCCN1C(=O)CSC1=O)[C@@H](C)O)[C@@H](C)O)[C@@H](C)CC)C(C)C)C(N)=O)C(=O)O` [Compound 155], the Emax at GIP-R (Table 3) came out at 80%; on GIP-R (Table 3A), 80%; on GLP-1R [2] (Table 3), 102%; on GLP-1R [2] (Table 3A), 102%. In addition, the EC50 at GIP-R (Table 3, read-out: EC50 GIP-R/nM) is 1 to 10 nM; at GIP-R (Table 3A, read-out: EC50 GIP-R/nM) it was 1 to 10 nM; at GLP-1R [1] (setting [3]) it was over 1000 nM; at GLP-1R [2] (Table 3, read-out: EC50 GLP-1R/nM), 0.1 to 1 nM; on GLP-1R [2] (setting [4]), 0.1 to 1 nM.
Consider `CCCCCCCCCCCCCCCC(=O)N[C@@H](CCC(=O)NCCCC[C@H](NC(=O)[C@H](CO)NC(=O)[C@@H]1CCCN1C(=O)[C@@H]1CCCN1C(=O)[C@@H]1CCCN1C(=O)[C@H](C)NC(=O)CNC(=O)[C@H](CO)NC(=O)[C@H](CO)NC(=O)[C@@H]1CCCN1C(=O)CNC(=O)CNC(=O)[C@H](C)NC(=O)[C@H](CC(C)C)NC(=O)[C@H](CC(C)C)NC(=O)[C@H](Cc1c[nH]c2ccccc12)NC(=O)[C@H](CC(N)=O)NC(=O)[C@@H](NC(=O)[C@H](Cc1ccccc1)NC(=O)[C@H](CCC(=O)O)NC(=O)C(C)(C)NC(=O)[C@H](C)NC(=O)[C@H](C)NC(=O)[C@H](CCC(N)=O)NC(=O)[C@H](CCCCN)NC(=O)[C@H](CC(=O)O)NC(=O)[C@H](CC(C)C)NC(=O)[C@H](Cc1ccc(O)cc1)NC(=O)[C@@H](NC(=O)[C@H](CO)NC(=O)[C@H](Cc1ccc(O)cc1)NC(=O)[C@H](CC(=O)O)NC(=O)[C@H](CO)NC(=O)[C@@H](NC(=O)[C@H](Cc1ccccc1)NC(=O)[C@@H](NC(=O)CNC(=O)[C@@H](CC(=O)O)NC(=O)CSCC(=O)NCCN1CCCCC1=O)[C@@H](C)O)[C@@H](C)O)[C@@H](C)CC)C(C)C)C(N)=O)C(=O)O` [Compound 218] (X6-[dD]GTFTSDYSIYLDKQAA[Aib]EFVNWLLAGGPSSGAPPPSK([γGlu-Palmitoyl])-NH2), for which the Emax on GIP-R (Table 3A) is 19 to 23%; at GLP-1R [2] (Table 3A), 96%. In addition, the EC50 is over 1000 nM on GLP-1R [1] (setting [3]) and 0.1 to 1 nM at GLP-1R [2] (setting [4]).

As a reminder, the Emax is the maximal effect, on the per cent scale that the assay sets.
